Converted amounts (≈) assume the structure as drawn. “Also recorded” adds a separate entry of the source. Read-outs that look alike come from different tables or passages of the source.
Assays:
Type in all cases: cell-based
Klebsiella spp. = assay: Broth microdilution MIC, 50 clinical isolates (20 K. oxytoca, 30 K. pneumoniae)
How it was run: (§1)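 CLSI broth microdilution in cation-adjusted Mueller Hinton broth, with 3% lysed horse blood added for streptococci. Two-fold dilutions, inoculum ~5×10^5 CFU/mL, 35° C for 16-24 hr in ambient air (streptococci with CO2 planchets). MIC = lowest concentration inhibiting visible growth.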

[1] = system: Bacteroides spp. (B. fragilis ATCC 25285, B. vulgatus, B. ovatus MMX 3503); assay: Agar dilution MIC (spontaneous mutation study; strain in conditions)
Veillonella spp. = assay: Agar dilution MIC, 30 clinical isolates; conditions: for Mode: modal MIC
Enterobacter aerogenes = assay: Broth microdilution MIC, 50 clinical isolates
How it was run: as §1

Pseudomonas aeruginosa = assay: Broth microdilution MIC, 50 clinical isolates
How it was run: as §1

Proteus mirabilis = assay: Broth microdilution MIC, 50 clinical isolates
How it was run: as §1

[2] = 30 Veillonella spp. clinical isolates

C[C@@H](O)[C@H]1C(=O)N2C(C(=O)O)=C(S[C@@H]3CN[C@H](C(=O)N(C)C)C3)[C@H](C)[C@H]12 [meropenem]
% R (Klebsiella spp.): Sixteen
% S (Klebsiella spp.): 84%
Mode (Klebsiella spp.): 0.015 µg/mL
relative activity among drugs tested (Klebsiella spp.): most active drug evaluated; also recorded: MIC50 value for meropenem was the lowest
Cumulative percentage of isolates at MIC (Klebsiella spp.; 0.015 μg/mL): 58.0%
Number of test isolates at MIC (Klebsiella spp.; 0.015 μg/mL): 27
Cumulative percentage of isolates at MIC (Klebsiella spp.; 0.03 μg/mL): 80.0%
Number of test isolates at MIC (Klebsiella spp.; 0.03 μg/mL): 11
Cumulative percentage of isolates at MIC (Klebsiella spp.; 0.06 μg/mL): 82.0%
Number of test isolates at MIC (Klebsiella spp.; 0.06 μg/mL): 1
Cumulative percentage of isolates at MIC (Klebsiella spp.; 0.5 μg/mL): 84.0%
Number of test isolates at MIC (Klebsiella spp.; 0.5 μg/mL): 1
Cumulative percentage of isolates at MIC (Klebsiella spp.; 8 μg/mL): 88.0%
Number of test isolates at MIC (Klebsiella spp.; 8 μg/mL): 2
Cumulative percentage of isolates at MIC (Klebsiella spp.; >8 μg/mL): 100.0%
Number of test isolates at MIC (Klebsiella spp.; >8 μg/mL): 6
MIC50 (Klebsiella spp.; Klebsiella, read-out: MIC50): 0.015 µg/mL (≈ 0.0391 µM)
MIC90 (Klebsiella spp.; Klebsiella, read-out: MIC90): > 8 µg/mL
% R (Klebsiella spp.; listed as MEM): 16%
MIC90 (Klebsiella spp.; listed as MEM): >8 µg/mL
Cumulative percentage of isolates at MIC (Klebsiella spp.; ≤0.008 μg/mL): 4.0%
Number of test isolates at MIC (Klebsiella spp.; ≤0.008 μg/mL): 2
MIC ([1]; Bacteroides fragilis, ATCC25285, read-out: Agar MIC): 0.12 µg/mL (≈ 0.313 µM)
MIC ([1]; Bacteroides ovatus, ATCC25285, read-out: Agar MIC): 0.12 µg/mL (≈ 0.313 µM)
MIC ([1]; Phocaeicola vulgatus, ATCC 25285 / ATCC 8482, read-out: Agar MIC): 0.12 µg/mL (≈ 0.313 µM)
MIC ([1]; over evaluated Bacteroides spp., read-out: MIC values (agar dilution)): 0.008 to 0.12 µg/mL (≈ 0.0209 to 0.313 µM)
isolates with intermediate resistance (Veillonella spp.): Twenty-three
relative activity among drugs tested (Veillonella spp.): most active drug evaluated; also recorded: most active agent
% I (Veillonella spp.; [2]): 23%
% S (Veillonella spp.; [2]): 77%
MIC50 (Veillonella spp.; [2]): 1 µg/mL (≈ 2.61 µM)
MIC90 (Veillonella spp.; [2]): 8 µg/mL (≈ 20.9 µM)
MIC range (Veillonella spp.; [2]): 0.12 to 8 µg/mL
MIC50 (Veillonella spp.; Veillonella, read-out: MIC50): 1 µg/mL (≈ 2.61 µM)
MIC90 (Veillonella spp.; Veillonella, read-out: MIC90): 8 µg/mL (≈ 20.9 µM)
Mode (Veillonella spp.; [2]): 0.12 µg/mL
% I (Enterobacter aerogenes): 2%
% S (Enterobacter aerogenes): Ninety-eight
MIC range (Enterobacter aerogenes): 0.015 to 2 µg/mL
Mode (Enterobacter aerogenes): 0.03 µg/mL
relative activity among drugs tested (Enterobacter aerogenes): most active drug evaluated; also recorded: most active agent
Cumulative percentage of isolates inhibited at MIC (Enterobacter aerogenes; 0.015 μg/mL): 36.0%
Number of test isolates at MIC (Enterobacter aerogenes; 0.015 μg/mL): 18
Cumulative percentage of isolates inhibited at MIC (Enterobacter aerogenes; 0.03 μg/mL): 80.0%
Number of test isolates at MIC (Enterobacter aerogenes; 0.03 μg/mL): 22
Cumulative percentage of isolates inhibited at MIC (Enterobacter aerogenes; 0.06 μg/mL): 94.0%
Number of test isolates at MIC (Enterobacter aerogenes; 0.06 μg/mL): 7
Cumulative percentage of isolates inhibited at MIC (Enterobacter aerogenes; 1 μg/mL): 98.0%
Number of test isolates at MIC (Enterobacter aerogenes; 1 μg/mL): 1
Cumulative percentage of isolates inhibited at MIC (Enterobacter aerogenes; 2 μg/mL): 100.0%
Number of test isolates at MIC (Enterobacter aerogenes; 2 μg/mL): 1
MIC50 (Enterobacter aerogenes; Klebsiella aerogenes, read-out: MIC50): 0.03 µg/mL (≈ 0.0782 µM)
MIC90 (Enterobacter aerogenes; Klebsiella aerogenes, read-out: MIC90): 0.06 µg/mL (≈ 0.156 µM)
Cumulative percentage of isolates inhibited at MIC (Enterobacter aerogenes; […]): 96.0%
Number of test isolates at MIC (Enterobacter aerogenes; […]): 1
% I (Enterobacter aerogenes; listed as MEM): 2%
% S (Enterobacter aerogenes; listed as MEM): 98%
% I (Pseudomonas aeruginosa): 10%
% R (Pseudomonas aeruginosa): Eighteen
% S (Pseudomonas aeruginosa): 72%
Mode (Pseudomonas aeruginosa): 0.25 µg/mL
relative activity among drugs tested (Pseudomonas aeruginosa): most active drug evaluated; also recorded: most active agent
Cumulative percentage of isolates inhibited at MIC (Pseudomonas aeruginosa; 0.03 μg/mL): 2.0%
Number of test isolates at MIC (Pseudomonas aeruginosa; 0.03 μg/mL): 1
Cumulative percentage of isolates inhibited at MIC (Pseudomonas aeruginosa; 0.06 μg/mL): 6.0%
Number of test isolates at MIC (Pseudomonas aeruginosa; 0.06 μg/mL): 2
Cumulative percentage of isolates inhibited at MIC (Pseudomonas aeruginosa; 0.5 μg/mL): 56.0%
Number of test isolates at MIC (Pseudomonas aeruginosa; 0.5 μg/mL): 5
Cumulative percentage of isolates inhibited at MIC (Pseudomonas aeruginosa; 1 μg/mL): 66.0%
Number of test isolates at MIC (Pseudomonas aeruginosa; 1 μg/mL): 5
Cumulative percentage of isolates inhibited at MIC (Pseudomonas aeruginosa; 2 μg/mL): 72.0%
Number of test isolates at MIC (Pseudomonas aeruginosa; 2 μg/mL): 3
Cumulative percentage of isolates inhibited at MIC (Pseudomonas aeruginosa; 4 μg/mL): 84.0%
Number of test isolates at MIC (Pseudomonas aeruginosa; 4 μg/mL): 6
Cumulative percentage of isolates inhibited at MIC (Pseudomonas aeruginosa; 8 μg/mL): 92.0%
Number of test isolates at MIC (Pseudomonas aeruginosa; 8 μg/mL): 4
Cumulative percentage of isolates inhibited at MIC (Pseudomonas aeruginosa; >8 μg/mL): 100.0%
Number of test isolates at MIC (Pseudomonas aeruginosa; >8 μg/mL): 4
MIC50 (Pseudomonas aeruginosa; Pseudomonas aeruginosa, read-out: MIC50): 0.5 µg/mL (≈ 1.3 µM)
MIC90 (Pseudomonas aeruginosa; Pseudomonas aeruginosa, read-out: MIC90): 8 µg/mL (≈ 20.9 µM)
% I (Pseudomonas aeruginosa; listed as MEM): 10%
% R (Pseudomonas aeruginosa; listed as MEM): 18%
% S (Proteus mirabilis): 98%
MIC range (Proteus mirabilis): ≤0.008 to 2 µg/mL
Mode (Proteus mirabilis): 0.06 µg/mL
Cumulative percentage of isolates inhibited at MIC (Proteus mirabilis; 0.03 μg/mL): 38.0%
Number of test isolates at MIC (Proteus mirabilis; 0.03 μg/mL): 18
Cumulative percentage of isolates inhibited at MIC (Proteus mirabilis; 0.06 μg/mL): 82.0%
Number of test isolates at MIC (Proteus mirabilis; 0.06 μg/mL): 2
Cumulative percentage of isolates inhibited at MIC (Proteus mirabilis; 2 μg/mL): 100.0%
Number of test isolates at MIC (Proteus mirabilis; 2 μg/mL): 1
MIC50 (Proteus mirabilis; Proteus mirabilis, read-out: MIC50): 0.06 µg/mL (≈ 0.156 µM)
MIC90 (Proteus mirabilis; Proteus mirabilis, read-out: MIC90): 0.12 µg/mL (≈ 0.313 µM)
% I (Proteus mirabilis; listed as MEM): 2% ^
Cumulative percentage of isolates inhibited at MIC (Proteus mirabilis; ≤0.008 μg/mL): 2.0%
Number of test isolates at MIC (Proteus mirabilis; ≤0.008 μg/mL): 1

CO[C@H]1/C=C/O[C@@]2(C)Oc3c(C)c(O)c4c(O)c(c5c(nc6cc(C)ccn65)c4c3C2=O)NC(=O)/C(C)=C\C=C\[C@H](C)[C@H](O)[C@@H](C)[C@@H](O)[C@@H](C)[C@H](OC(C)=O)[C@@H]1C [rifaximin]
MIC50 (Klebsiella spp.): 32 µg/mL (≈ 40.7 µM)
MIC90 (Klebsiella spp.): > 64 µg/mL
Mode (Klebsiella spp.): 16 µg/mL
Cumulative percentage of isolates at MIC (Klebsiella spp.; 8 μg/mL): 10.0%
Number of test isolates at MIC (Klebsiella spp.; 8 μg/mL): 5
Cumulative percentage of isolates at MIC (Klebsiella spp.; 16 μg/mL): 46.0%
Number of test isolates at MIC (Klebsiella spp.; 16 μg/mL): 18
Cumulative percentage of isolates at MIC (Klebsiella spp.; 32 μg/mL): 64.0%
Number of test isolates at MIC (Klebsiella spp.; 32 μg/mL): 9
Cumulative percentage of isolates at MIC (Klebsiella spp.; 64 μg/mL): 80.0%
Number of test isolates at MIC (Klebsiella spp.; 64 μg/mL): 8
Cumulative percentage of isolates at MIC (Klebsiella spp.; >64 μg/mL): 100.0%
Number of test isolates at MIC (Klebsiella spp.; >64 μg/mL): 10
MIC90 (Klebsiella spp.; listed as RFX): >64 µg/mL
Agar MIC ([1]; B. fragilis ATCC 25285): 0.25 µg/mL
Agar MIC ([1]; B. ovatus MMX 3503): 0.5 µg/mL
Agar MIC ([1]; B. vulgatus ATCC 8482): 0.12 µg/mL
MIC50 (Veillonella spp.): 4 µg/mL (≈ 5.09 µM)
MIC90 (Veillonella spp.): 8 µg/mL (≈ 10.2 µM)
MIC50 (Veillonella spp.; [2]): 4 µg/mL (≈ 5.09 µM)
MIC90 (Veillonella spp.; [2]): 8 µg/mL (≈ 10.2 µM)
MIC range (Veillonella spp.; [2]): 0.12 to 16 µg/mL
Mode (Veillonella spp.; [2]): 2 µg/mL
MIC50 (Enterobacter aerogenes): 16 µg/mL (≈ 20.4 µM)
MIC90 (Enterobacter aerogenes): 64 µg/mL (≈ 81.4 µM)
Mode (Enterobacter aerogenes): 16 µg/mL
Cumulative percentage of isolates inhibited at MIC (Enterobacter aerogenes; 8 μg/mL): 20.0%
Number of test isolates at MIC (Enterobacter aerogenes; 8 μg/mL): 10
Cumulative percentage of isolates inhibited at MIC (Enterobacter aerogenes; 16 μg/mL): 64.0%
Number of test isolates at MIC (Enterobacter aerogenes; 16 μg/mL): 22
Cumulative percentage of isolates inhibited at MIC (Enterobacter aerogenes; 32 μg/mL): 88.0%
Number of test isolates at MIC (Enterobacter aerogenes; 32 μg/mL): 12
Cumulative percentage of isolates inhibited at MIC (Enterobacter aerogenes; 64 μg/mL): 98.0%
Number of test isolates at MIC (Enterobacter aerogenes; 64 μg/mL): 5
Cumulative percentage of isolates inhibited at MIC (Enterobacter aerogenes; >64 μg/mL): 100.0%
Number of test isolates at MIC (Enterobacter aerogenes; >64 μg/mL): 1
MIC50 (Pseudomonas aeruginosa): 8 µg/mL (≈ 10.2 µM)
MIC90 (Pseudomonas aeruginosa): 16 µg/mL (≈ 20.4 µM)
Mode (Pseudomonas aeruginosa): 8 µg/mL
Cumulative percentage of isolates inhibited at MIC (Pseudomonas aeruginosa; 4 μg/mL): 16.0%
Number of test isolates at MIC (Pseudomonas aeruginosa; 4 μg/mL): 8
Cumulative percentage of isolates inhibited at MIC (Pseudomonas aeruginosa; 8 μg/mL): 66.0%
Number of test isolates at MIC (Pseudomonas aeruginosa; 8 μg/mL): 25
Cumulative percentage of isolates inhibited at MIC (Pseudomonas aeruginosa; 16 μg/mL): 94.0%
Number of test isolates at MIC (Pseudomonas aeruginosa; 16 μg/mL): 14
Cumulative percentage of isolates inhibited at MIC (Pseudomonas aeruginosa; 32 μg/mL): 96.0%
Number of test isolates at MIC (Pseudomonas aeruginosa; 32 μg/mL): 1
Cumulative percentage of isolates inhibited at MIC (Pseudomonas aeruginosa; 64 μg/mL): 98.0%
Number of test isolates at MIC (Pseudomonas aeruginosa; 64 μg/mL): 1
Cumulative percentage of isolates inhibited at MIC (Pseudomonas aeruginosa; >64 μg/mL): 100.0%
Number of test isolates at MIC (Pseudomonas aeruginosa; >64 μg/mL): 1
MIC50 (Proteus mirabilis): 4 µg/mL (≈ 5.09 µM)
MIC90 (Proteus mirabilis): 8 µg/mL (≈ 10.2 µM)
Mode (Proteus mirabilis): 4 µg/mL
Cumulative percentage of isolates inhibited at MIC (Proteus mirabilis; 4 μg/mL): 84.0%
Number of test isolates at MIC (Proteus mirabilis; 4 μg/mL): 42
Cumulative percentage of isolates inhibited at MIC (Proteus mirabilis; 8 μg/mL): 96.0%
Number of test isolates at MIC (Proteus mirabilis; 8 μg/mL): 6
Cumulative percentage of isolates inhibited at MIC (Proteus mirabilis; >64 μg/mL): 100.0%
Number of test isolates at MIC (Proteus mirabilis; >64 μg/mL): 2

Source: US20210386367A1, “DEVICES AND SYSTEMS FOR GASTROINTESTINAL MICROBIOME DETECTION AND MANIPULATION” (Progenity, Inc., priority 2018, published 2021)
